Measurements as given in PubChem BioAssay AID1996.
In brackets after ≈: the same amount, converted by molar mass.

settings: buffer; pH 7.4; 200.0 µM

| SMILES | solubility kinetic [µg/mL] |
| --- | --- |
| O=C(CCn1c(=S)oc2ccccc21)NCCC1=CCCCC1 | 0.8 (≈ 2.42 µM) |
| CCOc1ccc(OCCC(=O)OCC(=O)NC2CC2)cc1 | > 46.1 |
| COC(=O)c1cc(S(=O)(=O)NCCCc2ccco2)c[nH]1 | > 46.9 |
| CC(C)CCNC(=O)c1cc2c(=O)[nH]c3ccccc3c2s1 | < 0.3 |
| COc1ccc(NC(=O)Nc2ccc(Br)c(C)c2)cc1 | < 0.4 |
| NC(=O)c1ccc(NC(=O)COC(=O)CCC2CCCCC2)cc1 | 9.1 (≈ 27.4 µM) |
| COc1ccc(NC(=S)NC2CC3CCC2C3)c(OC)c1 (configuration not stated) | 14.8 (≈ 48.3 µM) |
| CCC(=O)c1cn(CC(=O)Nc2ccccc2F)c2ccccc12 | 3.2 (≈ 9.87 µM) |
| COc1ccc2nc(NCc3cccnc3)sc2c1 | > 40.7 |
| CCOC(=O)c1c(C)nsc1NCc1ccccc1 | 8.5 (≈ 30.8 µM) |
| Cn1cccc1CNC(=S)Nc1ccccc1F | > 39.5 |
| CCC(=O)c1ccc(OCC(=O)OCC(=O)Nc2ccc3c(c2)OCCO3)cc1 | 18.8 (≈ 47.1 µM) |
| O=[N+]([O-])CC(c1ccccc1)P(=O)(c1ccccc1)c1ccccc1 (configuration not stated) | 9.1 (≈ 25.9 µM) |
| CCN1CCCC1CNC(=O)C(=O)NC (configuration not stated) | > 32 |
| COc1ccc(-n2c(C)ccc2C)c([N+](=O)[O-])c1 | 22.7 (≈ 92.2 µM) |
| O=C(NC1CC1)c1nc(Cn2ccc([N+](=O)[O-])n2)no1 | > 41.7 |
| CCS(=O)(=O)c1ccccc1C(=O)NC1CCCc2ccccc21 (configuration not stated) | 42.6 (≈ 124 µM) |
| O=C(CCN1C(=O)C2CC=CCC2C1=O)NC1CCCCC1 (configuration not stated) | > 45.7 |
| CCOc1ccc(CCNC(=O)COC(=O)c2ccc(C)s2)cc1OCC | 23.7 (≈ 60.5 µM) |
| CC(C)(CNc1ccc(C(F)(F)F)cc1[N+](=O)[O-])N1CCOCC1 | 5.5 (≈ 15.8 µM) |
| CC(C)(C)c1ccc(NC(=O)c2c(F)cccc2Cl)cc1 | 1.1 (≈ 3.6 µM) |
| Cn1cc(C(=O)C(=O)N2CCOCC2)c2ccccc21 | > 40.8 |

| SMILES | solubility kinetic [µg/mL] |
| --- | --- |
| O=[N+]([O-])c1ccccc1S(=O)(=O)Nc1ccc2c(c1)OCCO2 | > 50.4 |
| CC(Sc1ccc(S(=O)(=O)N2CCCC2)cn1)C(N)=O (configuration not stated) | > 47.3 |
| Clc1ccc(Cc2ccccn2)cc1 | 6.3 (≈ 30.9 µM) |
| COC(=O)c1cc(CNC(=O)C2CC(=O)N(c3ccc4c(c3)OCCO4)C2)ccc1OC (configuration not stated) | 64.7 (≈ 147 µM) |
| O=C(O)C(Cc1ccccc1)n1c(=S)[nH]c2ccccc2c1=O (configuration not stated) | > 49 |
| Cc1ccc(NC(=O)C2CCCN2C(=O)NC2CCCCC2)cc1F (configuration not stated) | 0.9 (≈ 2.59 µM) |
| CC1CCCN(C(=O)CNC(=O)c2ccco2)C1 (configuration not stated) | > 37.5 |
| O=C(NCc1csc2ccc(Cl)cc12)Nc1ccccc1 | < 0.3 |
| Cn1cc(-c2ccccc2C(N)=O)c(=O)c2ccccc21 | > 41.7 |
| O=S(=O)(c1ccc2c(c1)CCCN2)N1CCCC1 | > 40 |
| O=c1[nH]c(=O)n(Cc2ccco2)c(O)c1C=NCCN1CCNCC1 | > 52.1 |
| O=C(CCc1nc(-c2ccc(F)cc2)no1)Nc1cccc(C(=O)NC2CC2)c1 | 9.7 (≈ 24.6 µM) |
| COC(=O)c1[nH]c2c(c1C)C(=O)CC(c1ccc(OC)cc1)C2 (configuration not stated) | 2.7 (≈ 8.62 µM) |
| O=S(=O)(NCc1ccco1)c1cnc(Cl)c(Cl)c1 | > 46.1 |
| Cc1nc(SCC(=O)O)c(C#N)c(-c2ccco2)c1C(=O)N(C)C | > 51.8 |
| O=[N+]([O-])c1c(NCc2ccco2)ccc2nonc12 | 38.4 (≈ 148 µM) |
| CC(NC(=O)c1cc2cc(F)ccc2[nH]1)c1ccccc1 (configuration not stated) | 4.2 (≈ 14.9 µM) |
| Cc1c(C)n(-c2ccc(Cl)cc2)c2ncnc(N)c12 | 7.4 (≈ 27.1 µM) |
| CC1Cc2ccccc2N1Cc1cccc([N+](=O)[O-])c1 (configuration not stated) | 3.6 (≈ 13.4 µM) |
| O=C(NCC(=O)N1CCN(c2ncccn2)CC1)c1ccccc1OC(F)F | 52.2 (≈ 133 µM) |
| O=C1CN(S(=O)(=O)c2cc(Cl)ccc2Cl)c2ccccc2N1 | 37.8 (≈ 106 µM) |
| C=C(C)COc1ccc(-c2nc(N)ncc2-c2ccc(Cl)cc2)c(O)c1 | 1.9 (≈ 5.17 µM) |

| SMILES | solubility kinetic [µg/mL] |
| --- | --- |
| Nc1cc(=O)[nH]c(SCC(=O)c2ccc(O)cc2O)n1 | > 44 |
| CCc1ccc(C(=O)Nc2cc(S(=O)(=O)N3CCOCC3)ccc2N2CCOCC2)cc1 | 2.5 (≈ 5.44 µM) |
| COc1ccc(N2CC(C(=O)NC3=NCCS3)CC2=O)cc1 (configuration not stated) | > 47.9 |
| O=[N+]([O-])c1ccc(-c2cn3ccccc3n2)cc1 | 1.7 (≈ 7.11 µM) |
| O=C(CCl)Nc1cccc(Oc2cnccn2)c1 | 39.4 (≈ 149 µM) |
| O=C(NC1CCCCC1)Oc1cc2oc(=O)sc2cc1Cl | 10.1 (≈ 30.8 µM) |
| NC(=O)c1cc(-c2ccncc2)nc2ccc(Cl)cc12 | 37 (≈ 130 µM) |
| Cc1ccc(C)c(OCCCCN2CCCCC2)c1.O=C(O)C(=O)O | 47.5 |
| CCOC(=O)c1sc(-c2ccccn2)nc1C | 23.4 (≈ 94.2 µM) |
| CCOc1ccccc1NC(=O)C1COc2ccccc2O1 (configuration not stated) | < 0.6 |
| CCC(C)C(Nc1ncnc2scc(-c3ccccc3)c12)C(=O)O (configuration not stated) | > 51.2 |
| CCN(CC)c1ccc(CNCCc2ccccc2F)cc1.Cl | > 50.5 |
| CC(C)(C)C(=O)/C(C#N)=C/c1cccs1 | 10.9 (≈ 49.7 µM) |
| CC(=O)N[C@@H](Cc1c[nH]c2ccccc12)C(=O)NC1CC1 | > 42.8 |
| O=C(NCc1ccccc1)c1ccccc1Br | 36.4 (≈ 125 µM) |
| CCn1cc(C(=O)NCc2ccccc2)c2ccccc21 | 8 (≈ 28.7 µM) |
| Cc1c(CN2CCN(CC(C)(C)C)C(CCO)C2)[nH]c2ccccc12 (configuration not stated) | 45.1 (≈ 131 µM) |
| O=C(NCCCCc1ccccc1)Nc1ccc(F)cc1F | 0.3 (≈ 0.986 µM) |
| COc1ccc(NCC(=O)N2CCCC2)cc1Cl | 38 (≈ 141 µM) |
| O=C1COc2ccc(S(=O)(=O)N3CCc4ccccc43)cc2N1 | 2.4 (≈ 7.26 µM) |
| Cc1cccc(CSc2[nH]c(=O)ncc2C)c1 | 15.7 (≈ 63.7 µM) |
| Cc1nc(C)c(C(=O)OCC(=O)Nc2cccc(C)c2C)s1 | 39.7 (≈ 125 µM) |

| SMILES | solubility kinetic [µg/mL] |
| --- | --- |
| Cn1nc(C(=O)NC2CCC(O)CC2)c2ccccc2c1=O (configuration not stated) | > 45.2 |
| COc1cccc(C(=O)Nc2cccc(NC(=O)c3ccccc3Cl)c2)c1 | 7.4 (≈ 19.4 µM) |
| COc1cccc(C(=O)NCCCNC(=O)c2ccco2)c1 | 40.8 (≈ 135 µM) |
| Cc1cc(NC(=O)C2CC(=O)N(c3ccccc3C)C2)no1 (configuration not stated) | > 44.9 |
| Cc1nc(C)c(C(=O)OC(C)C(=O)Nc2ccc(F)cc2)s1 (configuration not stated) | > 48.4 |
| CCn1cc(S(=O)(=O)NCCc2ccc(F)cc2)cn1 | > 44.6 |
| O=S(=O)(Cc1ccccc1Cl)NCc1ccccc1 | 32.1 (≈ 109 µM) |
| CC1(C)Cc2nc(-c3ccccc3)nc(SCC(=O)N3CCCC3)c2CO1 | 22.3 (≈ 58.1 µM) |
| CCN1CCN(C(=O)CSc2nc(N)cc(N)n2)CC1 | > 44.5 |
| Cc1cc(-c2ccccc2)c2c(n1)sc1c(O)cc(=O)[nH]c12 | > 46.3 |
| O=S(=O)(Nc1ccccn1)c1ccc(Cl)c2ccccc12 | 1.4 (≈ 4.39 µM) |
| CC(O)CNCCCCOc1ccc(OCc2ccccc2)cc1 (configuration not stated) | 40.7 (≈ 124 µM) |
| Cc1cc(NC(=O)CN2CCN(c3cccc(Cl)c3)CC2)no1 | 45.5 (≈ 136 µM) |
| CSc1nc(-c2ccccc2)nc(NC(C)=O)c1C(C)=O | 3.9 (≈ 12.9 µM) |
| CCc1cc2ccccc2nc1Cl | < 0.4 |
| Nc1cncc(C(=O)O)c1 | > 20.7 |
| CSc1nc(NCCCO)c2c3c(sc2n1)CN(C)CC3 | 41.7 (≈ 129 µM) |
| COc1ccc(C(=O)Nc2ccc(CN3CCOCC3)cc2)cc1Br | 14.1 (≈ 34.8 µM) |
| O=c1ccccn1CCOc1ccc(Cl)cc1 | > 37.5 |
| CCOC(=O)C1=C(C)NC(=O)NC1c1ccc([N+](=O)[O-])o1 (configuration not stated) | 42.7 (≈ 145 µM) |
| O=C(Oc1coc(CSc2ncccn2)cc1=O)c1ccco1 | 46.5 (≈ 141 µM) |
